Starred links: 1 amine or outer side, 2 acyl side, 3 side chain; linkers in the order of their positions; H or OH if unused. Non-standard residues stand in square brackets, D forms with d. Residues, ends and D or L forms follow the SMILES beside them. Groups on a side chain read outwards from the residue. *: point of attachment. C18 diacid = O=C(O)CCCCCCCCCCCCCCCCC(=O)*; γGlu = O=C(O)[C@H](CCC(=O)[*:2])N[*:1]; εLys = N[C@@H](CCCCN[*:1])C(=O)[*:2]; Aib = CC(C)(N)C(=O)O
Tests used:
[1] = biological target: human GLP-1 receptor (Homo sapiens, UniProt P43220); assay: cell-based; conditions: hGLP-1R
human GLP-1 receptor, sequence (P43220 24-463): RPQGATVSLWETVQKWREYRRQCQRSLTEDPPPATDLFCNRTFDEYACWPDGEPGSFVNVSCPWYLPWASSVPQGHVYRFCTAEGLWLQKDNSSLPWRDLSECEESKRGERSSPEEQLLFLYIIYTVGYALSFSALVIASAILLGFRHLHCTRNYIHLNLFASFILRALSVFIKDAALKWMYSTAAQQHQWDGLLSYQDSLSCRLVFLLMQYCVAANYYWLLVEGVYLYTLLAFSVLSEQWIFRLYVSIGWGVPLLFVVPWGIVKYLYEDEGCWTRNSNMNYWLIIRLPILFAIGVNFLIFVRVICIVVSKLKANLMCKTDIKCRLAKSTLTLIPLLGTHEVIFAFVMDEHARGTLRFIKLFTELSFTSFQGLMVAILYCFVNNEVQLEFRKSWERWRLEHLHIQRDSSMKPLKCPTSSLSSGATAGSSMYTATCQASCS
Protocol: (§1) The in vitro functional potency is the measure of target receptor activation in a whole cell assay.
(§2) In vitro functional potency was determined by measuring the response of the target receptor in a reporter gene assay in individual cell lines. […] When the respective receptor is activated, it results in the production of cAMP, which in turn results in expression of the luciferase protein. When assay incubation is completed, luciferase substrate (luciferin) is added resulting in the enzymatic conversion of luciferin to oxyluciferin and producing bioluminescence. The luminescence is measured as the readout for the assay.
(§3) The cells lines used in these assays were BHK cells with BHKTS13 as a parent cell line. The cell lines were derived from a clone containing the CRE luciferase element and were established by further transfection with the respective receptor to obtain the relevant cell line.
(§4) The cells were cultured at 37° C. with 5% CO2 in Cell Culture Medium. They were aliquoted and stored in liquid nitrogen. The cells were kept in continuous culture and were seeded out the day before each assay.
(§5) GLP-1R and GcgR Cell Culture Medium consisted of DMEM medium with 10% FBS, 500 μg/mL G418, and 300 μg/mL hygromycin. GIPR Cell Culture Medium consisted of DMEM medium with 10% FBS, 400 μg/mL G418, and 300 μg/mL hygromycin. Assay Buffer consisted of DMEM w/o phenol red, 10 mM Hepes, 1×Glutamax, 1% ovalbumin, and 0.1% Pluronic F-68 with the addition of HSA at twice the final assay concentration.
(§6) • 1) Cells were plated at 5000 cells/well and incubated overnight in the assay plate. • 2) Cells were washed once in DPBS. • 3) Stocks of the test compounds and reference compounds in concentrations ranging from 100-300 μM were diluted 1:150 in Assay Buffer. Compounds were then diluted 1:10 in column 1 of a 96 deep well dilution plate and then carried across the row creating a 3.5 fold, 12 point dilution curve. • 4) Assay Buffer (50 μl aliquot) with or without HSA was added to each well in the assay plate. • 5) A 50 μl aliquot of compound or blank was transferred from the dilution plate to the assay plate containing the Assay Buffer with or without HSA. • 6) The assay plate was incubated for 3 h in a 5% CO2 incubator at 37° C. 7) The cells were washed once with DPBS. • 8) A 100 μl aliquot of DPBS was added to each well of the assay plate. • 9) A 100 μl aliquot of steadylite plus reagent (light sensitive) was added to each well of the assay plate. • 10) Each assay plate was covered with aluminum foil to protect it from light and shaken at 250 RPM for 30 min at room temperature. • 11) Each assay plate was read in a microtiter plate reader.
(§7) The data from the microtiter plate reader was first regressed in an Excel in order to calculate the x-axis, log scale concentrations based on the individual test compound's stock concentration and the dilutions of the assay. […] The software performs a non-linear regression (log(agonist) vs response). A minimum of two replicates was measured for each sample. The reported values are averages of the replicates.

[2] = biological target: T1, mouse GLP-1 receptor (Mus musculus, UniProt O35659)
T1 sequence (O35659 22-463): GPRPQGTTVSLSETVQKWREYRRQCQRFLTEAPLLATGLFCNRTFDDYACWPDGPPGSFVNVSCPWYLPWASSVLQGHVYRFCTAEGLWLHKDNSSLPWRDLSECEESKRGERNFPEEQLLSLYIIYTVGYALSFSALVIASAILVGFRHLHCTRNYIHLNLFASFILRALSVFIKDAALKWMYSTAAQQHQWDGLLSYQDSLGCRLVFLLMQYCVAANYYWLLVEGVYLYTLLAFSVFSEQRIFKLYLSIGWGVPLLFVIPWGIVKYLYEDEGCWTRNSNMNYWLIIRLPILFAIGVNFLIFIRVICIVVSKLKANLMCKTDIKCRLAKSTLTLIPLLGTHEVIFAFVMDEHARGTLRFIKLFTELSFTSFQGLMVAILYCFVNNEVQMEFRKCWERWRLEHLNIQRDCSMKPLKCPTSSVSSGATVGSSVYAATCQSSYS
Protocol: as §1, §2, §3, §4, §5, §6, §7

Row | Compound | EC50 ([1]; CRE Luc 0% HSA EC50, 0% HSA) | EC50 ([1]; CRE Luc 1% HSA EC50, 1% HSA) | EC50 [2]
1 | CC[C@H](C)[C@H](NC(=O)[C@H](CO)NC(=O)[C@H](Cc1ccc(O)cc1)NC(=O)[C@H](CC(=O)O)NC(=O)[C@H](CO)NC(=O)[C@@H](NC(=O)[C@H](Cc1ccccc1)NC(=O)[C@@H](NC(=O)CNC(=O)[C@H](CCC(=O)O)NC(=O)C(C)(C)NC(=O)[C@@H](N)Cc1ccc(O)cc1)[C@@H](C)O)[C@@H](C)O)C(=O)N[C@@H](Cc1ccc(O)cc1)C(=O)N[C@@H](CC(C)C)C(=O)N[C@@H](CC(=O)O)C(=O)N[C@@H](CCCCN)C(=O)N[C@@H](CCC(N)=O)C(=O)N[C@@H](C)C(=O)N[C@@H](C)C(=O)NC(C)(C)C(=O)N[C@@H](CCC(=O)O)C(=O)N[C@@H](Cc1ccccc1)C(=O)N[C@H](C(=O)N[C@@H](CC(N)=O)C(=O)N[C@@H](Cc1c[nH]c2ccccc12)C(=O)N[C@@H](CC(C)C)C(=O)N[C@@H](CC(C)C)C(=O)N[C@@H](C)C(=O)NCC(=O)NCC(=O)N1CCC[C@H]1C(=O)N[C@@H](CO)C(=O)N[C@@H](CO)C(=O)NCC(=O)N[C@@H](C)C(=O)N1CCC[C@H]1C(=O)N1CCC[C@H]1C(=O)N1CCC[C@H]1C(=O)N[C@@H](CO)C(=O)N[C@@H](CCCCNC(=O)CCCCCCCCCCCCCCCCC(=O)O)C(N)=O)C(C)C [Compound 2] | 0.0675 nM | 0.439 nM | 
2 | CC[C@H](C)[C@H](NC(=O)[C@H](CO)NC(=O)[C@H](Cc1ccc(O)cc1)NC(=O)[C@H](CC(=O)O)NC(=O)[C@H](CO)NC(=O)[C@@H](NC(=O)[C@H](Cc1ccccc1)NC(=O)[C@@H](NC(=O)CNC(=O)[C@H](CCC(=O)O)NC(=O)C(C)(C)NC(=O)[C@@H](N)Cc1ccc(O)cc1)[C@@H](C)O)[C@@H](C)O)C(=O)N[C@@H](Cc1ccc(O)cc1)C(=O)N[C@@H](CC(C)C)C(=O)N[C@@H](CC(=O)O)C(=O)N[C@@H](CCCCN)C(=O)N[C@@H](CCC(N)=O)C(=O)N[C@@H](C)C(=O)N[C@@H](C)C(=O)NC(C)(C)C(=O)N[C@@H](CCC(=O)O)C(=O)N[C@@H](Cc1ccccc1)C(=O)N[C@H](C(=O)N[C@@H](CC(N)=O)C(=O)N[C@@H](Cc1c[nH]c2ccccc12)C(=O)N[C@@H](CC(C)C)C(=O)N[C@@H](CC(C)C)C(=O)N[C@@H](C)C(=O)NCC(=O)NCC(=O)N1CCC[C@H]1C(=O)N[C@@H](CO)C(=O)N[C@@H](CO)C(=O)NCC(=O)N[C@@H](C)C(=O)N1CCC[C@H]1C(=O)N1CCC[C@H]1C(=O)N1CCC[C@H]1C(=O)N[C@@H](CO)C(=O)N[C@@H](CCCCNC(=O)COCCOCCNC(=O)COCCOCCNC(=O)CC[C@H](NC(=O)CCCCCCCCCCCCCCCCC(=O)O)C(=O)O)C(N)=O)C(C)C [Compound 3] | 0.0134 nM | 0.606 nM | 
3 | CC[C@H](C)[C@H](NC(=O)[C@H](CO)NC(=O)[C@H](Cc1ccc(O)cc1)NC(=O)[C@H](CC(=O)O)NC(=O)[C@H](CO)NC(=O)[C@@H](NC(=O)[C@H](Cc1ccccc1)NC(=O)[C@@H](NC(=O)CNC(=O)[C@H](CCC(=O)O)NC(=O)C(C)(C)NC(=O)[C@@H](N)Cc1ccc(O)cc1)[C@@H](C)O)[C@@H](C)O)C(=O)N[C@@H](Cc1ccc(O)cc1)C(=O)N[C@@H](CC(C)C)C(=O)N[C@@H](CC(=O)O)C(=O)N[C@@H](CCCCN)C(=O)N[C@@H](CCC(N)=O)C(=O)N[C@@H](C)C(=O)N[C@@H](C)C(=O)NC(C)(C)C(=O)N[C@@H](CCCCNC(=O)CC[C@H](NC(=O)CC[C@H](NC(=O)CC[C@H](NC(=O)CCCCCCCCCCCCCCCCC(=O)O)C(=O)O)C(=O)O)C(=O)O)C(=O)N[C@@H](Cc1ccccc1)C(=O)N[C@H](C(=O)N[C@@H](CC(N)=O)C(=O)N[C@@H](Cc1c[nH]c2ccccc12)C(=O)N[C@@H](CC(C)C)C(=O)N[C@@H](CC(C)C)C(=O)N[C@@H](C)C(=O)NCC(=O)NCC(=O)N1CCC[C@H]1C(=O)N[C@@H](CO)C(=O)N[C@@H](CO)C(=O)NCC(=O)N[C@@H](C)C(=O)N1CCC[C@H]1C(=O)N1CCC[C@H]1C(=O)N1CCC[C@H]1C(=O)N[C@@H](CO)C(N)=O)C(C)C [Compound 6] (H-Y[Aib]EGTFTSDYSIYLDKQAA[Aib]K([γGlu-γGlu-γGlu-C18 diacid])FVNWLLAGGPSSGAPPPS-NH2; N-terminus assumed) | 0.0059 nM |  | 0.0023 nM
4 | CC[C@H](C)[C@H](NC(=O)[C@H](CO)NC(=O)[C@H](Cc1ccc(O)cc1)NC(=O)[C@H](CC(=O)O)NC(=O)[C@H](CO)NC(=O)[C@@H](NC(=O)[C@H](Cc1ccccc1)NC(=O)[C@@H](NC(=O)CNC(=O)[C@H](CCC(=O)O)NC(=O)[C@H](C)NC(=O)[C@@H](Cc1ccc(O)cc1)NC(C)=O)[C@@H](C)O)[C@@H](C)O)C(=O)N[C@@H](Cc1ccc(O)cc1)C(=O)N[C@@H](CC(C)C)C(=O)N[C@@H](CC(=O)O)C(=O)N[C@@H](CCCCN)C(=O)N[C@@H](CCC(N)=O)C(=O)N[C@@H](C)C(=O)N[C@@H](C)C(=O)NC(C)(C)C(=O)N[C@@H](CCCCNC(=O)[C@@H](N)CCCCNC(=O)[C@@H](N)CCCCNC(=O)CC[C@H](NC(=O)CCCCCCCCCCCCCCCCC(=O)O)C(=O)O)C(=O)N[C@@H](Cc1ccccc1)C(=O)N[C@H](C(=O)N[C@@H](CC(N)=O)C(=O)N[C@@H](Cc1c[nH]c2ccccc12)C(=O)N[C@@H](CC(C)C)C(=O)N[C@@H](CC(C)C)C(=O)N[C@@H](C)C(=O)NCC(=O)NCC(=O)N1CCC[C@H]1C(=O)N[C@@H](CO)C(=O)N[C@@H](CO)C(=O)NCC(=O)N[C@@H](C)C(=O)N1CCC[C@H]1C(=O)N1CCC[C@H]1C(=O)N1CCC[C@H]1C(=O)N[C@@H](CO)C(N)=O)C(C)C [Compound 8] (Ac-[dY]AEGTFTSDYSIYLDKQAA[Aib]K([εLys-εLys-γGlu-C18 diacid])FVNWLLAGGPSSGAPPPS-NH2) |  |  | 0.017 nM

— patent US20230346961A1, “GLP-1 AND GIP RECEPTOR CO-AGONISTS” (Novo Nordisk A/S, priority 2020, published 2023)
